In publication PMC9637228, “Elucidating host cell response pathways and repurposing therapeutics for SARS-CoV-2 and other coronaviruses” (Scientific Reports, 2022):
“Also recorded” adds a separate entry of the source. Counter-ions that a name gives are not always drawn. Like-named read-outs stand apart in the source and are kept apart here.

Key:
[1] = Cytotoxicity (cell viability) in the SARS-CoV-2 Vero cell assay; conditions: African green monkey, Vero cells
SARS-CoV-2 [2] = assay: microbe, parasite or virus in culture; format: cell-based; conditions: for IC50: SARS-CoV-2 infected Vero cells; for anti-SARS-CoV-2 activity (in words): Vero cell assay
HCoV-229E = assay: Anti-HCoV-229E compound testing in MRC5 cells (Cell-Titer Glo); format: cell-based; conditions: for EC50: Human coronavirus 229E; for activity against HCoV-229E (in words): MRC5 cells
Experimental: (§1) Human lung fibroblast MRC5 cells were cultured in a 96-well plate at 10,000 cells/well in EMEM + 10% FBS overnight. The next day the culture medium was removed from each well and compounds in EMEM + 2% FBS + 0.5% DMSO were added. Each drug was tested on its own 96 well plate. Each plate contained 3 wells of uninfected cells without DMSO, 3 wells of uninfected cells with 0.5% DMSO, 3 wells of infected cells with no DMSO, and 3 wells of infected cells with 0.5% DMSO. Experimental compounds were tested in triplicate at each concentration. Tanespimycin, bortezomib, and homoharringtonine were tested using 2 µM starting concentration, 8-point, threefold serial dilution. After a 1-h pre-incubation with testing compounds, HCoV-229E or HCoV-OC43 viruses at an MOI of 0.01 were added to the culture with compounds for another 1 h. Cell-Titer Glo assay was added after additional incubation time with compounds of interest (HCoV-229E for 96 h and HCoV-OC43 for 120 h). Assay readout was performed using luminescence measurement on a Tecan Spark plate reader.
(§2) CC50 values were determined by applying nonlinear fit of luminescence readouts from uninfected, compound-treated wells against compound concentration. Likewise, EC50 values were determined by nonlinear fit of luminescence readouts from virus-infected, compound-treated wells. Nonlinear regression models were applied for derivation of EC50 and CC50 values respectively, based on built-in equations of Prism Version 8.2.1 (GraphPad Software, San Diego, CA). SI calculated as the ratio of CC50 to EC50.

[3] = Cytotoxicity in uninfected, compound-treated MRC5 cells (Cell-Titer Glo); conditions: human
SARS-CoV-1 = conditions: 10 μM, Huh-7 cells; cited from earlier work
MERS-CoV = conditions: 10 μM, Huh-7 cells; cited from earlier work
HCoV-OC43 = assay: Anti-HCoV-OC43 compound testing in MRC5 cells (Cell-Titer Glo); format: cell-based; conditions: for activity against HCoV-OC43 (in words): MRC5 cells
Experimental: as §1, §2

SARS-CoV-2 [4] = conditions: 10 μM, Huh-7 cells; cited from earlier work
Vero cells = assay: Cytotoxicity (cell viability) in the SARS-CoV-2 Vero cell assay; conditions: Table 2 test
[5] = human, in vivo
in vitro = conditions: African green monkey, Vero cells
SARS-CoV-2 [6] = conditions: read-out: reported IC50; cited from earlier work
[7] = Clinical dosing estimation of compounds (clinical exposure, Cmax); conditions: calculated from published Cmax and molecular weight
[8] = Severe acute respiratory syndrome coronavirus 2, Vero, 24 h, Table 2 test (average reversal score predicted compounds)
[9] = Severe acute respiratory syndrome coronavirus 2, Vero, Round 2, 24 h, 1-h preincubation, read-out: IC50
[10] = Betacoronavirus 1, MRC5 cells infected with HCoV-OC43, MOI 0.01, 120 h, read-out: EC50
[11] = Severe acute respiratory syndrome coronavirus 2, Vero, Round 2, 24 h, 1-h preincubation
[12] = Severe acute respiratory syndrome coronavirus 2, Vero, Round 1, 24 h, 1-h preincubation
[13] = MRC5 cells infected with HCoV-229E, MOI 0.01, 96 h, read-out: EC50
[14] = Severe acute respiratory syndrome coronavirus 2, Vero, Round 1, 24 h, 1-h preincubation, read-out: IC50
[15] = uninfected MRC5 lung fibroblast cells

N[C@@H](CC(=O)N1CCn2c(nnc2C(F)(F)F)C1)Cc1cc(F)c(F)cc1F [Sitagliptin]
CC50 at 24 h ([1]; CC50, Table 2 test): > 50 µM
IC50 (SARS-CoV-2 [2]; Severe acute respiratory syndrome coronavirus 2, Vero, 24 h, Table 2 test (average reversal score predicted compounds), read-out: IC50): > 50 µM
anti-SARS-CoV-2 activity (in words) (SARS-CoV-2 [2]): did not show meaningful anti-SARS-CoV-2 activity

O=C(O)c1ccccc1Nc1cccc(OCc2ccc3ccccc3n2)c1 [SR-2640 hydrochloride]
CC50 at 24 h ([1]; CC50, Table 2 test): > 50 µM
IC50 (SARS-CoV-2 [2]; [8]): 24.2 µM
anti-SARS-CoV-2 activity (in words) (SARS-CoV-2 [2]): did not result in a meaningful effect on viral production

C=CCNC1=C2C[C@@H](C)C[C@H](OC)[C@H](O)[C@@H](C)/C=C(\C)[C@H](OC(N)=O)[C@@H](OC)/C=C\C=C(/C)C(=O)NC(=CC1=O)C2=O [Tanespimycin]
CC50 at 24 h ([1]; CC50, Round 2): > 50 µM
EC50 (HCoV-229E; MRC5): < 0.001 µM
EC50 (HCoV-229E; MRC5, 96 h): 0.0036 µM
activity against HCoV-229E (in words) (HCoV-229E): effective
activity against HCoV-229E (in words) (HCoV-229E; listed as tanespimycin): highly potent
IC50 (SARS-CoV-2 [2]; [9]): 31.3 µM
anti-SARS-CoV-2 activity (in words) (SARS-CoV-2 [2]): no activity
anti-SARS-CoV-2 activity (in words) (SARS-CoV-2 [2]; listed as tanespimycin): neither tanespimycin nor a second generation HSP90 inhibitor ganetespib exhibited anti-viral efficacy
CC50 at 96 h [3]: 0.182 µM
CC50 at 120 h [3]: 0.253 µM
inhibition of viral activities of SARS-CoV-1 (SARS-CoV-1): effectively inhibited
inhibition of viral activities of MERS-CoV (MERS-CoV): effectively inhibited
EC50 (HCoV-OC43; Betacoronavirus 1, OC43, MRC5): < 0.001 µM
EC50 (HCoV-OC43; [10]): 0.0019 µM
activity against HCoV-OC43 (in words) (HCoV-OC43): effective
activity against HCoV-OC43 (in words) (HCoV-OC43; listed as tanespimycin): highly potent
inhibition of viral activities of SARS-CoV-2 (SARS-CoV-2 [4]): effectively inhibited

N[C@@H]1CCCN(c2c(/C=C3\SC(=O)NC3=O)cccc2-c2ccccc2)C1 [AZD-1208]
CC50 (Vero cells): > 50 µM
IC50 (SARS-CoV-2 [2]; Table 2 test (average reversal score predicted compounds), read-out: IC50): 27.3 µM

Cc1cccc(C)c1OCC(=O)N[C@@H](Cc1ccccc1)[C@@H](O)C[C@H](Cc1ccccc1)NC(=O)[C@H](C(C)C)N1CCCNC1=O [Lopinavir]
CC50 at 24 h ([1]; CC50, Round 2): > 50 µM
CC50 at 24 h ([1]; CC50, Table 2 test): > 50 µM
IC50 (SARS-CoV-2 [2]; [8]): 12.6 µM
IC50 (SARS-CoV-2 [2]; [11]): 13.5 µM

CCC(CC)COC(=O)[C@H](C)N[P@](=O)(OC[C@H]1O[C@@](C#N)(c2ccc3c(N)ncnn23)[C@H](O)[C@@H]1O)Oc1ccccc1 [Remdesivir]
CC50 at 24 h ([1]; CC50, Round 1): > 50 µM
CC50 at 24 h ([1]; CC50, Round 2): > 50 µM
CC50 at 24 h ([1]; CC50, Table 2 test): > 50 µM
IC50 (SARS-CoV-2 [2]; [8]): 8.58 µM
IC50 (SARS-CoV-2 [2]; [12]): 12.1 µM
IC50 (SARS-CoV-2 [2]; [11]): 7.45 µM

CC(C)C[C@H](NC(=O)[C@H](Cc1ccccc1)NC(=O)c1cnccn1)B(O)O [Bortezomib]
CC50 at 24 h ([1]; CC50, Round 1): > 50 µM
CC50 at 24 h ([1]; CC50, Round 2): > 50 µM
EC50 (HCoV-229E; [13]): 0.252 µM
activity against HCoV-229E (in words) (HCoV-229E): no activity
activity against HCoV-229E (in words) (HCoV-229E; listed as bortezomib): did not find bortezomib to be effective
Clinical Exposure [5]: 0.29 µM
Clinical Exposure ([5]; iv): approximately 580 nM
IC50 (SARS-CoV-2 [2]; [14]): 1.39 µM
IC50 (SARS-CoV-2 [2]; [9]): 3.42 µM
anti-SARS-CoV-2 activity (in words) (SARS-CoV-2 [2]): showed efficacy in controlling viral load
CC50 at 96 h [3, 15]: 0.536 µM
CC50 at 120 h [3, 15]: 0.591 µM
EC50 (HCoV-OC43; [10]): 0.666 µM
activity against HCoV-OC43 (in words) (HCoV-OC43): no activity
activity against HCoV-OC43 (in words) (HCoV-OC43; listed as bortezomib): did not find bortezomib to be effective

CCN(CC)CCCC(C)Nc1ccnc2cc(Cl)ccc12 (stereo not shown) [Chloroquine]
CC50 (in vitro; CC50, Round 1): 128 µM
CC50 (in vitro; CC50, Round 2): > 150 µM
CC50 (in vitro; CC50, Table 2 test): > 150 µM
IC50 (SARS-CoV-2 [2]; [8]): 11.3 µM
IC50 (SARS-CoV-2 [2]; [12]): 12 µM
IC50 (SARS-CoV-2 [2]; [11]): 9.8 µM

C#CCC(Cc1cnc2nc(N)nc(N)c2n1)c1ccc(C(=O)N[C@@H](CCC(=O)O)C(=O)O)cc1 (stereo partly shown) [Pralatrexate]
IC50 (SARS-CoV-2 [6]): 0.008 µM

CC(C)c1cc(-c2n[nH]c(=O)n2-c2ccc3c(ccn3C)c2)c(O)cc1O [Ganetespib]
CC50 at 24 h ([1]; CC50, Round 2): 28.9 µM
IC50 (SARS-CoV-2 [2]; [9]): 35.5 µM
anti-SARS-CoV-2 activity (in words) (SARS-CoV-2 [2]): no activity; also recorded: neither tanespimycin nor a second generation HSP90 inhibitor ganetespib exhibited anti-viral efficacy

CC[C@@H](C(N)=O)N1CCCC1=O [Levetiracetam]
CC50 at 24 h ([1]; CC50, Table 2 test): > 50 µM
IC50 (SARS-CoV-2 [2]; [8]): > 50 µM
anti-SARS-CoV-2 activity (in words) (SARS-CoV-2 [2]): no anti-viral activity
anti-SARS-CoV-2 activity (in words) (SARS-CoV-2 [2]; listed as levetiracetam): did not show meaningful anti-SARS-CoV-2 activity; also recorded: did not result in a meaningful effect on viral production

CC(=O)Nc1cccc(-n2c(=O)n(C3CC3)c(=O)c3c(Nc4ccc(I)cc4F)n(C)c(=O)c(C)c32)c1 [Trametinib]
CC50 at 24 h ([1]; CC50, Round 1): > 50 µM
Clinical Exposure [7]: 0.045 µM
IC50 (SARS-CoV-2 [2]; [14]): 15 µM

Cc1ccc(Cl)c(Nc2ccccc2C(=O)O)c1Cl [Meclofenamic acid sodium salt]
CC50 at 24 h ([1]; CC50, Table 2 test): > 50 µM

CC(C)C[C@H](NC(=O)CNC(=O)c1cc(Cl)ccc1Cl)B(O)O [Ixazomib]
CC50 at 24 h ([1]; CC50, Round 2): > 50 µM
IC50 (SARS-CoV-2 [2]; [9]): 11.7 µM
anti-SARS-CoV-2 activity (in words) (SARS-CoV-2 [2]): showed efficacy in controlling viral load

COC(=O)C[C@](O)(CCCC(C)(C)O)C(=O)O[C@@H]1C(OC)=C[C@]23CCCN2CCc2cc4c(cc2[C@H]13)OCO4 [Homoharringtonine]
CC50 at 24 h ([1]; CC50, Round 1): 2.14 µM
CC50 at 24 h ([1]; CC50, Round 2): 6.22 µM
EC50 (HCoV-229E; MRC5): < 0.1 µM
EC50 (HCoV-229E; [13]): 0.0511 µM
activity against HCoV-229E (in words) (HCoV-229E): highly effective
Clinical Exposure [7]: 0.046 µM
average EC50/IC50 (SARS-CoV-2 [2]; SARS-CoV-2, Vero cells, average of the rounds): under 300 nM
IC50 (SARS-CoV-2 [2]; [12]): 0.16 µM
IC50 (SARS-CoV-2 [2]; [11]): 0.26 µM
anti-SARS-CoV-2 activity (in words) (SARS-CoV-2 [2]): highly effective
CC50 at 96 h [3, 15]: 0.205 µM
CC50 at 120 h [3, 15]: 0.167 µM
EC50 (HCoV-OC43; Betacoronavirus 1, OC43, MRC5): < 0.1 µM
EC50 (HCoV-OC43; [10]): 0.126 µM
activity against HCoV-OC43 (in words) (HCoV-OC43): highly effective

Cc1nc(Nc2ncc(C(=O)Nc3c(C)cccc3Cl)s2)cc(N2CCN(CCO)CC2)n1 [Dasatinib]
CC50 at 24 h ([1]; CC50, Round 1): 13.2 µM
IC50 (SARS-CoV-2 [2]; [14]): 19.7 µM

CCOC(=O)C1=C(C)NC(C)=C(C(=O)OCC)C1c1ccccc1/C=C/C(=O)OC(C)(C)C [Lacidipine]
CC50 at 24 h ([1]; CC50, Round 1): 20.2 µM
Clinical Exposure [5]: 0.003 to 0.013 µM
IC50 (SARS-CoV-2 [2]; [14]): 14.9 µM
